Experimental data: PubChem BioAssay (NCI)
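Compound exposure: 48 hours, 5 concentrations, 96-well plates. At the GI50, growth is halved. TGI: total growth inhibition.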

What was measured:
Assay in all cases: NCI tumour cell line growth inhibition, 48 h
[1] = system: CCRF-CEM leukemia
[2] = system: COLO 205 colon
[3] = system: NCI-H226 lung
[4] = system: OVCAR-8 ovarian
[5] = system: PC-3 prostate
[6] = system: SF-539 CNS
[7] = system: TK-10 renal
[8] = system: U251 CNS
[9] = system: UO-31 renal
[10] = system: SN12C renal

Structure (SMILES) | GI50 [1] | TGI [1] | GI50 [2] | TGI [2] | GI50 [3] | TGI [3] | GI50 [4] | TGI [4] | GI50 [5] | TGI [5] | GI50 [6] | TGI [6] | GI50 [7] | TGI [7] | GI50 [8] | TGI [8] | GI50 [9] | TGI [9] | TGI [10]
Cc1ccc(/C=C2\CN(C(=O)C(Cl)Cl)C/C(=C\c3ccc(C)cc3)C2=O)cc1 | 0.11 µM | > 100 µM | 0.241 µM | 0.695 µM | 0.245 µM | 0.622 µM | 0.357 µM | > 100 µM | 0.209 µM | 0.672 µM | 0.227 µM | 0.567 µM | 0.57 µM | 6.04 µM | 0.143 µM | 0.334 µM | 0.158 µM | 0.308 µM | –
COC(=O)C(=CNC(N)=O)C(=O)OC | – | > 100 µM | – | > 100 µM | – | – | – | > 100 µM | – | > 100 µM | – | > 100 µM | – | > 100 µM | – | – | – | > 100 µM | > 100 µM
C[N+](C)(C)CC1CCC/C1=N/O (configuration not stated) | – | 39.1 µM | – | 38.7 µM | – | > 100 µM | – | 4.34 µM | – | – | – | > 100 µM | – | > 100 µM | – | > 100 µM | – | > 100 µM | > 100 µM
Cn1c(=O)c(NC(=O)C(Cl)(Cl)Cl)nc2ccccc21 | – | > 100 µM | – | > 100 µM | – | > 100 µM | – | > 100 µM | – | – | – | > 100 µM | – | > 100 µM | – | > 100 µM | – | > 100 µM | > 100 µM
CN=C(NC(=S)N(C)C)N(C)C | – | > 100 µM | – | – | – | > 100 µM | – | > 100 µM | – | – | – | > 100 µM | – | > 100 µM | – | > 100 µM | – | > 100 µM | > 100 µM
